Counter-ions that a name gives are not always drawn. Like-named read-outs stand apart in the source and are kept apart here.
Tests used:
[1] = target: WT STING (Homo sapiens (Human), UniProt Q86WV6, H232R); test: Reporter gene assay (2): ISRE NanoLuc reporter in 293T cells, with digitonin, WT STING; assay type: cell-based; settings: for EC50: with digitonin, read-out: STING-293T cell EC50 (μM) Reporter with digitonin (B); for activation at 30 µM: HEK-293T, read-out: activity level against WT STING of test compound (30 μM)
Description: The culture solution was removed, and the test compound diluted with assay buffer (50 mM HEPES pH 7.0, 100 mM KCl, 3 mM MgCl2, 85 mM Sucrose, 0.1 mM DTT, 0.2% BSA, 1 mM ATP, 0.1 mM GTP, 10 μg/ml Digitonin) was added thereto by 15 μL/well. […] Luminescence signals derived from firefly luciferase and NanoLuc Luciferase were each measured using EnVision (PerkinElmer, Waltham, Mass., US) according to Nano-Glo Dual-Luciferase Reporter Assay System (Promega, Fitchburg, Wis., US) protocol. The ratio of the count of NanoLuc Luciferase divided by the count of firefly luciferase was used for culculation.

[2] = Human plasma stability assay; assay type: in vitro ADME; settings: elimination rate constant k; heparinized human plasma, 37° C., up to 24 hours
Description: The compound was incubated in heparinized human plasma at 37° C. for 0, 1, 2, 4, 8 and 24 hours, and the change in compound concentration was measured by LC/MS/MS method. The elimination rate constant (=k(/h)) was calculated based on the fitted curve assuming the exponential decrease of concentration as follows; concentration at time x=initial concentration*exp(−k*x).

[3] = tested on: CT-26 mouse tumor cells; test: Anti-tumor effect in colon carcinoma CT-26 syngeneic mice model; assay type: in vivo; settings: CT-26, Balb/C mice; intravenous, q3dx3; Ex3a 30 mg/kg, Ex14 1.0 mg/kg
Description: (§1) 8×10^4 B^16F10 and 2×10^5 CT-26 mouse tumor cells were subcutaneously implanted in the flank of female C57BL/6 (B16F10) and Balb/C (CT-26) mice (n=7 per group). Vehicle (1×PBS), compound Ex3a (30 mg/kg) or Ex14 (1.0 mg/kg) were intravenously administered (final volume of […]) to tumor-bearing mice once the tumor volume has reached 100 mm^3 (Day 0). Vehicle, Ex3a or Ex14 were given every 3 days for a total of 3 doses (q3dx3). Tumor and body weight measurements were taken three times per week using vernier calipers and mettler scale, respectively. Tumor volumes were determined by multiplying the square of the width (‘W’), measured along the […] of the tumor, by one-half the length (‘L’) measured along the […] of the tumor (V=W^2×0.5 L)

[4] = tested on: B16F10 mouse tumor cells; test: Anti-tumor effect in B16F10 syngeneic mice model; assay type: in vivo; settings: B16F10, C57BL/6 mice; intravenous, q3dx3; Ex3a 30 mg/kg, Ex14 1.0 mg/kg
Description: as §1

[5] = 30 μM, digitonin, 2′,3′-cGAMP (30 μM) = 100%

Sequence of WT STING (Q86WV6 whole entry H232R): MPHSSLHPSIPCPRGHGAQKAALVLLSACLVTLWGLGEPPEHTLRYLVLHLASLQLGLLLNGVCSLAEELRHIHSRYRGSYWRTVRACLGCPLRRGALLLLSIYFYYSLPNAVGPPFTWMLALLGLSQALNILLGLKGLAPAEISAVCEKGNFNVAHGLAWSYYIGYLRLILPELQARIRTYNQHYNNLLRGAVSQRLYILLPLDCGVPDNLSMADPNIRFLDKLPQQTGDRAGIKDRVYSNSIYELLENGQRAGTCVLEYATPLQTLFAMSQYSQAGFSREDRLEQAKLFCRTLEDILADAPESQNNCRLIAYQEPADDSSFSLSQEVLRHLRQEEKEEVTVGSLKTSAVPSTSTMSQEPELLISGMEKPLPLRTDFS

SMILES | Human plasma stability [2] | activation at 30 µM [1, 5] | activation at 30 µM [1] | other results
Nc1ncnc2c1ncn2[C@@H]1O[C@@H]2COP(=O)(S)O[C@@H]3[C@H](O)[C@@H](COP(=O)(S)O[C@H]2[C@H]1F)O[C@H]3n1cc(F)c2c(=O)[nH]cnc21 (stereo partly drawn) [Example 14, 7-((2R,5R,7R,8R,10R,12aR,14R,15R,15aR,16R)-14-(6-amino-9H-purin-9-yl)-15-fluoro-16-hydroxy-2,10-dioxido-2,10-disulfanyloctahydro-12H-5,8-methanofuro[3,2-1][1,3,6,9,11,2,10]pentaoxadiphosphacyclotetradecin-7-yl)-5-fluoro-3,7-dihydro-4H-pyrrolo[2,3-d]pyrimidin-4-one disodium salt] | <0.01 h⁻¹ | – | – | EC50 [1]: 0.13 µM; anti-tumor effect [3]: anti-tumor effects were observed; anti-tumor effect [4]: anti-tumor effects were observed
Nc1ncnc2c1ncn2[C@@H]1O[C@@]23CO[C@@H]1[C@@H]2OP(=O)(O)OC[C@H]1O[C@@H](n2cc(F)c4c(=O)[nH]cnc42)[C@H](OP(=O)(O)OC3)[C@@H]1O [Example 16, 7-((5R,7R,8R,12aR,14R,15R,15aS,18R)-14-(6-amino-9H-purin-9-yl)-2,10,18-trihydroxy-2,10-dioxidohexahydro-14H-15,12a-(epoxymethano)-5,8-methanofuro[3,2-1][1,3,6,9,11,2,10]pentaoxadiphosphacyclotetradecin-7(12H)-yl)-5-fluoro-3,7-dihydro-4H-pyrrolo[2,3-d]pyrimidin-4-one di-triethylamine salt] | – | 114% | – | –
Nc1ncnc2c1ncn2[C@@H]1O[C@@]23CO[C@@H]1[C@@H]2OP(=O)(S)OC[C@H]1O[C@@H](n2cc(F)c4c(=O)[nH]cnc42)[C@H](OP(=O)(O)OC3)[C@@H]1O (stereo partly drawn) [Example 17, 7-((5R,7R,8R,12aR,14R,15R,15aS,18R)-14-(6-amino-9H-purin-9-yl)-10,18-dihydroxy-2,10-dioxido-2-sulfanylhexahydro-14H-15,12a-(epoxymethano)-5,8-methanofuro[3,2-1][1,3,6,9,11,2,10]pentaoxadiphosphacyclotetradecin-7(12H)-yl)-5-fluoro-3,7-dihydro-4H-pyrrolo[2,3-d]pyrimidin-4-one di-trimethylamine salt] | – | – | 110% | –
Nc1ncnc2c1ncn2[C@@H]1O[C@@H]2COP(=O)(O)O[C@@H]3[C@H](O)[C@@H](COP(=O)(O)O[C@H]2[C@H]1F)O[C@H]3n1cc(F)c2c(=O)[nH]cnc21 [Example 1a, 7-((5R,7R,8R,12aR,14R,15R,15aR,16R)-14-(6-amino-9H-purin-9-yl)-15-fluoro-2,10,16-trihydroxy-2,10-dioxidooctahydro-12H-5,8-methanofuro[3,2-1][1,3,6,9,11,2,10]pentaoxadiphosphacyclotetradecin-7-yl)-5-fluoro-3,7-dihydro-4H-pyrrolo[2,3-d]pyrimidin-4-one disodium salt] | – | 99% | – | –
Nc1nc2c(ncn2[C@@H]2O[C@@H]3COP(=O)(O)O[C@H]4[C@@H](O)[C@H](n5cnc6c(N)ncnc65)O[C@@H]4COP(=O)(O)O[C@@H]2[C@@H]3O)c(=O)[nH]1 [cGAMP, 2′,3′-cGAMP, reference compound] | 1.39 h⁻¹ | – | – | –
Nc1nc2c(ncn2[C@@H]2O[C@@H]3COP(=O)(O)O[C@H]4[C@@H](O)[C@H](c5cnn6c(N)ncnc56)O[C@@H]4COP(=O)(O)O[C@@H]2[C@@H]3O)c(=O)[nH]1 [Example 13, 2-amino-9-((5R,7R,8R,12aR,14S,15S,15aS,16R)-14-(4-aminopyrazolo[1,5-a][1,3,5]triazin-8-yl)-2,10,15,16-tetrahydroxy-2,10-dioxidooctahydro-12H-5,8-methanofuro[3,2-1][1,3,6,9,11,2,10]pentaoxadiphosphacyclotetradecin-7-yl)-1,9-dihydro-6H-purin-6-one di-triethylamine salt] | – | – | 99% | –
Nc1ncnc2c1ncn2[C@@H]1O[C@@H]2COP(=O)(O)O[C@@H]3[C@H](O)[C@@H](COP(=O)(S)O[C@H]2[C@H]1F)O[C@H]3n1cc(F)c2c(=O)[nH]cnc21 (stereo partly drawn) [Example 3, 7-((2R,5R,7R,8R,12aR,14R,15R,15aR,16R)-14-(6-amino-9H-purin-9-yl)-15-fluoro-10,16-dihydroxy-2,10-dioxido-2-sulfanyloctahydro-12H-5,8-methanofuro[3,2-1][1,3,6,9,11,2,10]pentaoxadiphosphacyclotetradecin-7-yl)-5-fluoro-3,7-dihydro-4H-pyrrolo[2,3-d]pyrimidin-4-one 1.7 triethylamine salt] | – | 97% | – | –
Nc1nc2c(ncn2[C@@H]2O[C@@H]3COP(=O)(O)O[C@@H]4[C@H](O)[C@@H](COP(=O)(O)O[C@H]3[C@H]2F)O[C@H]4n2cc(F)c3c(=O)[nH]cnc32)c(=O)[nH]1 [Example 19, 2-amino-9-((5R,7R,8R,12aR,14R,15R,15aR,16R)-15-fluoro-7-(5-fluoro-4-oxo-3,4-dihydro-7H-pyrrolo[2,3-d]pyrimidin-7-yl)-2,10,16-trihydroxy-2,10-dioxidooctahydro-12H-5,8-methanofuro[3,2-1][1,3,6,9,11,2,10]pentaoxadiphosphacyclotetradecin-14-yl)-1,9-dihydro-6H-purin-6-one di-triethylamine salt] | – | – | 101% | –
Nc1ncnc2c1ncn2[C@@H]1O[C@@H]2COP(=O)(O)O[C@@H]3[C@H](O)[C@@H](COP(=O)(O)O[C@H]2[C@H]1F)O[C@H]3n1cc(F)c2c(=O)[nH]cnc21 [Example 1, 7-((5R,7R,8R,12aR,14R,15R,15aR,16R)-14-(6-amino-9H-purin-9-yl)-15-fluoro-2,10,16-trihydroxy-2,10-dioxidooctahydro-12H-5,8-methanofuro[3,2-1][1,3,6,9,11,2,10]pentaoxadiphosphacyclotetradecin-7-yl)-5-fluoro-3,7-dihydro-4H-pyrrolo[2,3-d]pyrimidin-4-one di-triethylamine salt] | – | 97% | – | –
Nc1ncnc2c1ncn2[C@@H]1O[C@@H]2COP(=O)(S)O[C@@H]3[C@H](O)[C@@H](COP(=O)(S)O[C@H]2[C@H]1O)O[C@H]3n1cc(F)c2c(=O)[nH]cnc21 (stereo partly drawn) [Example 5, 7-((5R,7R,8R,12aR,14R,15R,15aS,16R)-14-(6-amino-9H-purin-9-yl)-15,16-dihydroxy-2,10-dioxido-2,10-disulfanyloctahydro-12H-5,8-methanofuro[3,2-1][1,3,6,9,11,2,10]pentaoxadiphosphacyclotetradecin-7-yl)-5-fluoro-3,7-dihydro-4H-pyrrolo[2,3-d]pyrimidin-4-one di-triethylamine salt (Optical Isomer)] | <0.01 h⁻¹ | 102% | – | EC50 [1]: 0.19 µM
